This experiment relates to L1210 leukemia ip in BDF1 mice, survival T/C. As to the kind of experiment: NCI In Vivo Anticancer Drug Screen. Data for tumor model L1210 Leukemia (intraperitoneal) in B6D2F1 (BDF1) mice. The settings on record: endpoint: mean survival time, higher = longer survival. A digest of the protocol: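 Survival endpoint. Drug-treated group vs vehicle group, expressed as T divided by C. Tumor passaged by transplantation.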

The mark [1] stands for this setting: dose: 200.0 mg/kg/injection, schedule: Q01DX009 (ip), vehicle: Klucel (hydroxypropylcellulose) (HPC).
Where [2] appears, read: dose: 25.0 mg/kg/injection, schedule: Q04DX002 (ip), vehicle: saline.
[3] abbreviates: dose: 50.0 mg/kg/injection, schedule: Q04DX002 (ip), vehicle: saline.
[4] abbreviates: dose: 50.0 mg/kg/injection, schedule: Q01DX009 (ip), vehicle: saline.
Setting [5] is: dose: 100.0 mg/kg/injection, schedule: Q01DX001 (ip), vehicle: Klucel (hydroxypropylcellulose) (HPC).
Where [6] appears, read: dose: 200.0 mg/kg/injection, schedule: Q01DX001 (ip), vehicle: Klucel (hydroxypropylcellulose) (HPC).
The mark [7] stands for this setting: dose: 400.0 mg/kg/injection, schedule: Q01DX001 (ip), vehicle: Klucel (hydroxypropylcellulose) (HPC).
Setting [8] is: dose: 100.0 mg/kg/injection, schedule: Q01DX009 (ip), vehicle: Klucel (hydroxypropylcellulose) (HPC).
The mark [9] stands for this setting: dose: 400.0 mg/kg/injection, schedule: Q01DX009 (ip), vehicle: Klucel (hydroxypropylcellulose) (HPC).
[10] abbreviates: dose: 100.0 mg/kg/injection, schedule: Q04DX003 (ip), vehicle: Klucel (hydroxypropylcellulose) (HPC).
[11] abbreviates: dose: 200.0 mg/kg/injection, schedule: Q04DX003 (ip), vehicle: Klucel (hydroxypropylcellulose) (HPC).
Where [12] appears, read: dose: 400.0 mg/kg/injection, schedule: Q04DX003 (ip), vehicle: Klucel (hydroxypropylcellulose) (HPC).
Setting [13] is: dose: 100.0 mg/kg/injection, schedule: Q01DX001 (ip), vehicle: saline.
The mark [14] stands for this setting: dose: 200.0 mg/kg/injection, schedule: Q01DX001 (ip), vehicle: saline.
Setting [15] is: dose: 100.0 mg/kg/injection, schedule: Q01DX009 (ip), vehicle: saline with Tween-80.
[16] abbreviates: dose: 200.0 mg/kg/injection, schedule: Q01DX009 (ip), vehicle: saline with Tween-80.

Values joined by “and” are separate entries in the source; they are usually repeats but may differ in a detail not shown here. Equal values may be shown once. Inconclusive results and toxic doses are left out.

Turning to `O=S(=O)(ON=C(c1ccc(Cl)cc1)c1ccc(Cl)cc1)c1ccccc1`, the T/C by setting is: (dose: 100.0 mg/kg/injection, schedule: Q01DX009 (ip), vehicle: carboxymethylcellulose (CMC)) 98 % of control; (dose: 100.0 mg/kg/injection, schedule: Q04DX002 (ip), vehicle: carboxymethylcellulose (CMC)) 101 % of control and 92 % of control; (dose: 100.0 mg/kg/injection, schedule: Q04DX003 (ip), vehicle: carboxymethylcellulose (CMC)) 106 % of control; (dose: 200.0 mg/kg/injection, schedule: Q01DX009 (ip), vehicle: carboxymethylcellulose (CMC)) 95 % of control and 92 % of control; (dose: 200.0 mg/kg/injection, schedule: Q04DX002 (ip), vehicle: carboxymethylcellulose (CMC)) 102 % of control and 111 % of control; (dose: 200.0 mg/kg/injection, schedule: Q04DX003 (ip), vehicle: carboxymethylcellulose (CMC)) 93 % of control. Moreover, the T/C reads like this: (dose: 400.0 mg/kg/injection, schedule: Q01DX009 (ip), vehicle: carboxymethylcellulose (CMC)) 95 % of control and 101 % of control; (dose: 400.0 mg/kg/injection, schedule: Q04DX002 (ip), vehicle: carboxymethylcellulose (CMC)) 95 % of control and 101 % of control; (dose: 400.0 mg/kg/injection, schedule: Q04DX003 (ip), vehicle: carboxymethylcellulose (CMC)) 93 % of control.

Take `Cc1cc(C)nc(NS(=O)(=O)c2ccc(N=Nc3nc4[nH]c(N)nc(=S)c4[nH]3)cc2)n1`: the T/C is 151 % of control and 177 % of control (dose: 6.25 mg/kg/injection, schedule: Q01DX009 (ip), vehicle: Klucel (hydroxypropylcellulose) (HPC)); 153 % of control (dose: 12.5 mg/kg/injection, schedule: Q01DX009 (ip), vehicle: Klucel (hydroxypropylcellulose) (HPC)); 112 % of control (dose: 25.0 mg/kg/injection, schedule: Q01DX009 (ip), vehicle: Klucel (hydroxypropylcellulose) (HPC)); 102 % of control under setting [1].

With `COc1cc2c(cc1OC)C1(NCC2)C(=O)Nc2c(C)cc(Cl)cc21` (stereo unspecified), the T/C reads like this: under setting [2], 103 % of control; under setting [3], 92 % of control; (dose: 100.0 mg/kg/injection, schedule: Q04DX002 (ip), vehicle: saline) 95 % of control and 100 % of control; (dose: 200.0 mg/kg/injection, schedule: Q04DX002 (ip), vehicle: saline) 92 % of control; (dose: 400.0 mg/kg/injection, schedule: Q04DX002 (ip), vehicle: saline) 90 % of control.

For `NC(N)=NC1CCCC1`, the T/C (dose: 100.0 mg/kg/injection, schedule: Q04DX003 (ip), vehicle: saline) is 104 % of control.

Take `CC(C)c1ccc(/C=N/NC(=O)C[n+]2ccccc2)cc1`: the T/C runs as follows: (dose: 12.5 mg/kg/injection, schedule: Q01DX009 (ip), vehicle: saline) 100 % of control; (dose: 25.0 mg/kg/injection, schedule: Q01DX009 (ip), vehicle: saline) 105 % of control; under setting [4], 94 % of control.

As for `CC12OC1(C)C1(CO1)C1(C)OC1(C)C2=O` (stereo unspecified), the T/C under setting [5] was 94 % of control, the T/C under setting [6] is 97 % of control and the T/C under setting [7] is 87 % of control.

`Cc1ccc([N+](=O)[O-])cc1NC(=O)Nc1ccccc1F`: the T/C by setting is: under setting [8], 89 % of control; under setting [1], 92 % of control; under setting [9], 87 % of control.

`O=C(Nc1ccccc1)Oc1ccc(OC(=O)Nc2ccccc2)c(Cl)c1`: the T/C reads like this: (dose: 100.0 mg/kg/injection, schedule: Q04DX002 (ip), vehicle: saline + alcohol) 92 % of control; (dose: 200.0 mg/kg/injection, schedule: Q04DX002 (ip), vehicle: saline + alcohol) 92 % of control.

`CC(C)=CC(=O)CNC(N)=S`: the T/C is, setting by setting: under setting [10], 100 % of control and 98 % of control; under setting [11], 101 % of control; under setting [12], 93 % of control.

Take `[N-]=[N+]=Nc1nc(Cl)nc2c1ncn2Cc1ccccc1`: the T/C (dose: 75.0 mg/kg/injection, schedule: Q01DX001 (ip), vehicle: other) was 97 % of control.

With `O=c1[nH]cnc2ncccc12`, the T/C by setting is: under setting [13], 106 % of control; under setting [14], 104 % of control.

Take `CCOC(=O)C(C)(C(=O)OCC)c1cccc2ccccc12`: the T/C by setting is: (dose: 100.0 mg/kg/injection, schedule: Q01DX001 (ip), vehicle: other) 98 % of control; (dose: 100.0 mg/kg/injection, schedule: Q04DX003 (ip), vehicle: other) 93 % of control; (dose: 200.0 mg/kg/injection, schedule: Q01DX001 (ip), vehicle: other) 102 % of control; (dose: 200.0 mg/kg/injection, schedule: Q04DX003 (ip), vehicle: other) 100 % of control; (dose: 400.0 mg/kg/injection, schedule: Q01DX001 (ip), vehicle: other) 96 % of control; (dose: 400.0 mg/kg/injection, schedule: Q04DX003 (ip), vehicle: other) 94 % of control.

Turning to `CN(C)CCCNc1nc(Cl)nc(Cl)n1`, the T/C by setting is: under setting [4], 96 % of control; (dose: 100.0 mg/kg/injection, schedule: Q01DX009 (ip), vehicle: saline) 92 % of control; (dose: 200.0 mg/kg/injection, schedule: Q01DX009 (ip), vehicle: saline) 96 % of control.

As for `Nc1nc(N)c(-c2ccc(Cl)cc2)c(CCc2cccc(NC(=O)c3cccc(S(=O)(=O)F)c3)c2)n1`, the T/C reads like this: (dose: 100.0 mg/kg/injection, schedule: Q01DX001 (ip), vehicle: saline with Tween-80) 93 % of control; (dose: 200.0 mg/kg/injection, schedule: Q01DX001 (ip), vehicle: saline with Tween-80) 95 % of control; (dose: 400.0 mg/kg/injection, schedule: Q01DX001 (ip), vehicle: saline with Tween-80) 97 % of control.

On to `NC(Cc1ccccc1)C(=O)CCl` (stereo unspecified), for which the T/C is 105 % of control under setting [2] and 108 % of control under setting [3].

Turning to `CN1CN(c2ccccc2)C2(CCN(C3(c4ccccc4)CCCCC3)CC2)C1=O`, the T/C (dose: 50.0 mg/kg/injection, schedule: Q01DX001 (ip), vehicle: saline) is 102 % of control; the T/C under setting [13] was 92 % of control; the T/C under setting [14] was 94 % of control.

In the case of `O=C1c2ccccc2-c2c(Br)cccc21`, the T/C is 91 % of control (dose: 50.0 mg/kg/injection, schedule: Q04DX002 (ip), vehicle: saline with Tween-80); 91 % of control (dose: 100.0 mg/kg/injection, schedule: Q04DX002 (ip), vehicle: saline with Tween-80); 102 % of control (dose: 200.0 mg/kg/injection, schedule: Q04DX002 (ip), vehicle: saline with Tween-80).

For the compound `O=C(Nc1cccc(Cl)c1Cl)C(Cl)(Cl)Cl`, the T/C (dose: 100.0 mg/kg/injection, schedule: Q04DX002 (ip), vehicle: Klucel (hydroxypropylcellulose) (HPC)) was 100 % of control; the T/C (dose: 200.0 mg/kg/injection, schedule: Q04DX002 (ip), vehicle: Klucel (hydroxypropylcellulose) (HPC)) was 104 % of control; the T/C (dose: 400.0 mg/kg/injection, schedule: Q04DX002 (ip), vehicle: Klucel (hydroxypropylcellulose) (HPC)) was 88 % of control.

In the case of `CCCCCCCCCCCSCCCCCCCCSCCCCCCCCCCC`, the T/C runs as follows: under setting [5], 87 % of control; under setting [6], 92 % of control; under setting [7], 91 % of control.

Consider `ClC1(Cl)C2CCC3C(CCC21)C3(Cl)Cl` (stereo unspecified), for which the T/C is, setting by setting: under setting [8], 100 % of control; under setting [1], 107 % of control; under setting [9], 107 % of control.

With `CN(C)c1ccc2cc(S(=O)(=O)O)cc(O)c2c1`, the T/C runs as follows: under setting [15], 102 % of control; under setting [10], 105 % of control; under setting [16], 96 % of control; under setting [11], 95 % of control; (dose: 400.0 mg/kg/injection, schedule: Q01DX009 (ip), vehicle: saline with Tween-80) 94 % of control; under setting [12], 93 % of control.

As to `CCCCCCC(C1CCCCC1)C1CCCCC1`, the T/C reads like this: (dose: 100.0 mg/kg/injection, schedule: Q01DX001 (ip), vehicle: carboxymethylcellulose (CMC)) 86 % of control; (dose: 200.0 mg/kg/injection, schedule: Q01DX001 (ip), vehicle: carboxymethylcellulose (CMC)) 102 % of control; (dose: 400.0 mg/kg/injection, schedule: Q01DX001 (ip), vehicle: carboxymethylcellulose (CMC)) 91 % of control.

Consider `CCCC(Cl)C(=O)Nc1cccc(O)c1` (stereo unspecified), for which the T/C was 91 % of control under setting [15] and 91 % of control under setting [16].

These data come from PubChem BioAssay AID248 (DTP/NCI, 2004).
